Results from the supplement of paper PMC6965134.
± gives the standard deviation of the averaged measurements.

Assay: TIMS collisional cross section (CCS, N2) of the lipid ion; higher = larger ion cross section
Details: ionization mode: positive, one isomer drawn

Row | TIMS collisional cross section (sample type: plasma) | TIMS collisional cross section (sample type: Liver) | TIMS collisional cross section (sample type: HeLa) | Compound
1 |  | 340 Å² |  | CCCCCCC/C=C\CCCCCCCC(=O)OC[C@H](COC(=O)CCCCCCCCCCC/C=C\CCCCCCCC)OC(=O)CCCCCCCCC/C=C\CCCCCCCC [TG 17:1_20:1_22:1] (ion (formula + adduct): [C62H114O6+NH4] 1+)
2 | 326.25 ± 0.49 Å² | 326.4 Å² | 325.1 Å² | CCCCC/C=C\C/C=C\CCCCCCCC(=O)OC[C@@H](COC(=O)CCCCCCCCCCCCCCCCC)OC(=O)CCCCCCC/C=C\CCCCCCCC [TG 18:0_18:1_18:2] (ion (formula + adduct): [C57H104O6+NH4] 1+)
3 |  | 324.1 Å² |  | CC/C=C\C/C=C\C/C=C\CCCCCCCC(=O)OC[C@@H](COC(=O)CCCCCCCCCCCCCCCCC)OC(=O)CCCCCCC/C=C\CCCCCCCC [TG 18:0_18:1_18:3] (ion (formula + adduct): [C57H102O6+NH4] 1+)
4 | 334.1 Å² |  | 333.7 Å² | CCCCCCCC/C=C\CCCCCCCCCC(=O)OC[C@@H](COC(=O)CCCCCCCCCCCCCCCCC)OC(=O)CCCCCCC/C=C\CCCCCCCC [TG 18:0_18:1_20:1] (ion (formula + adduct): [C59H110O6+NH4] 1+)
5 |  | 333.4 Å² | 333.1 Å² | CC/C=C\C/C=C\C/C=C\C/C=C\C/C=C\C/C=C\CCC(=O)OC[C@@H](COC(=O)CCCCCCCCCCCCCCCCC)OC(=O)CCCCCCC/C=C\CCCCCCCC [TG 18:0_18:1_22:6] (ion (formula + adduct): [C61H104O6+NH4] 1+)
6 |  |  | 335.4 Å² | CCCCC/C=C\C/C=C\C/C=C\C/C=C\CCCCCC(=O)OC[C@@H](COC(=O)CCCCCCCCCCCCCCCCC)OC(=O)CCCCCCC/C=C\C/C=C\CCCCC [TG 18:0_18:2_22:4] (ion (formula + adduct): [C61H106O6+NH4] 1+)
7 |  | 346.5 Å² |  | CCCCCCCCCCCCCCCCCCCCCC(=O)OC[C@@H](COC(=O)CCCCCCCCCCCCCCCCC)OC(=O)CCCCCCCCCCCCCCCCCC [TG 18:0_19:0_22:0] (ion (formula + adduct): [C62H120O6+NH4] 1+)
8 | 349.1 Å² | 349.3 Å² |  | CCCCCCCCCCCCCCCCCCCCCC(=O)OC[C@@H](COC(=O)CCCCCCCCCCCCCCCCC)OC(=O)CCCCCCCCCCCCCCCCCCC [TG 18:0_20:0_22:0] (ion (formula + adduct): [C63H122O6+NH4] 1+)
9 | 352.7 Å² | 351.7 Å² |  | CCCCCCCCCCCCCCCCCCCCCC(=O)OC[C@@H](COC(=O)CCCCCCCCCCCCCCCCC)OC(=O)CCCCCCCCCCCCCCCCCCCC [TG 18:0_21:0_22:0] (ion (formula + adduct): [C64H124O6+NH4] 1+)
10 | 355.2 Å² | 355.9 Å² |  | CCCCCCCCCCCCCCCCCCCCCC(=O)OC[C@@H](COC(=O)CCCCCCCCCCCCCCCCC)OC(=O)CCCCCCCCCCCCCCCCCCCCC [TG 18:0_22:0_22:0] (ion (formula + adduct): [C65H126O6+NH4] 1+)
11 | 351 Å² |  |  | CCCCC/C=C\C/C=C\CCCCCCCCCCCC(=O)OC[C@@H](COC(=O)CCCCCCCCCCCCCCCCC)OC(=O)CCCCCCCCCCCCCCCCCCCCC [TG 18:0_22:0_22:2] (ion (formula + adduct): [C65H122O6+NH4] 1+)
12 |  |  | 350.2 Å² | CCCCCCCC/C=C\CCCCCCCCCCCC(=O)OC[C@@H](COC(=O)CCCCCCCCCCCCCCCCC)OC(=O)CCCCCCCCCCC/C=C\CCCCCCCC [TG 18:0_22:1_22:1] (ion (formula + adduct): [C65H122O6+NH4] 1+)
13 |  |  | 329.1 Å² | CCCCCCCC/C=C\CCCCCCCC(=O)OC[C@H](COC(=O)CCCCCCC/C=C\CCCCCCCCC)OC(=O)CCCCCCC/C=C\CCCCCCCC [TG 18:1_18:1_19:1] (ion (formula + adduct): [C58H106O6+NH4] 1+)
14 | 339.3 Å² | 339.7 Å² |  | CCCCCCCC/C=C\CCCCCCCC(=O)OC[C@H](COC(=O)CCCCCCCCCCCCCCCCCCCCC)OC(=O)CCCCCCC/C=C\CCCCCCCC [TG 18:1_18:1_22:0] (ion (formula + adduct): [C61H114O6+NH4] 1+)
15 | 333.8 Å² | 334.9 Å² |  | CCCCC/C=C\C/C=C\C/C=C\C/C=C\CCCCCC(=O)OC[C@@H](COC(=O)CCCCCCC/C=C\CCCCCCCC)OC(=O)CCCCCCC/C=C\CCCCCCCC [TG 18:1_18:1_22:4] (ion (formula + adduct): [C61H106O6+NH4] 1+)

Second part, the compound before the results:

Row | Compound | TIMS collisional cross section (sample type: plasma) | TIMS collisional cross section (sample type: Liver) | TIMS collisional cross section (sample type: HeLa)
16 | CC/C=C\C/C=C\C/C=C\CCCCCCCC(=O)OC[C@@H](COC(=O)CCCCCCC/C=C\CCCCCCC)OC(=O)CCCCCCC/C=C\C/C=C\CCCCC [TG 17:1_18:2_18:3] (ion (formula + adduct): [C56H96O6+NH4] 1+) | 317.2 Å² |  | 
17 | CCCCC/C=C\C/C=C\C/C=C\C/C=C\CCCC(=O)OC[C@@H](COC(=O)CCCCCCC/C=C\CCCCCCC)OC(=O)CCCCCCC/C=C\C/C=C\CCCCC [TG 17:1_18:2_20:4] (ion (formula + adduct): [C58H98O6+NH4] 1+) |  | 322.8 Å² | 
18 | CCCC/C=C\C/C=C\CCCCCCCC(=O)OC[C@H](COC(=O)CCC/C=C\C/C=C\C/C=C\C/C=C\CCCCC)OC(=O)CCCCCCC/C=C\C/C=C\CCCCC [TG 17:2_18:2_20:4] (ion (formula + adduct): [C58H96O6+NH4] 1+) |  | 322.2 Å² | 
19 | CCCCCCCC/C=C\CCCCCCCC(=O)OC[C@@H](COC(=O)CCCCCCCCCCCCCCCCC)OC(=O)CCCCCCCCCCCCCCCCC [TG 18:0_18:0_18:1] (ion (formula + adduct): [C57H108O6+NH4] 1+) | 330.6 Å² |  | 
20 | CCCCCCCCCCCCCCCCCCCCCC(=O)OC[C@@H](COC(=O)CCCCCCCCCCCCCCCCC)OC(=O)CCCCCCCCCCCCCCCCC [TG 18:0_18:0_22:0] (ion (formula + adduct): [C61H118O6+NH4] 1+) |  | 344.1 Å² | 
21 | CCCCCCCC/C=C\CCCCCCCC(=O)OC[C@@H](COC(=O)CCCCCCCCCCCCCCCCC)OC(=O)CCCCCCC/C=C\CCCCCCCC [TG 18:0_18:1_18:1] (ion (formula + adduct): [C57H106O6+NH4] 1+) | 328.45 ± 0.49 Å² |  | 
22 | CCCCCCCC/C=C\CCCCCCCC(=O)O[C@H](COC(=O)CCCCCCCCCCCCCCCCC)COC(=O)CCCCCCCCCCCCCCCCCCCCC [TG 18:0_18:1_22:0] (ion (formula + adduct): [C61H116O6+NH4] 1+) | 341.9 Å² | 342 Å² | 341.8 Å²
23 | CCCCCCCC/C=C\CCCCCCCCCCCC(=O)OC[C@@H](COC(=O)CCCCCCCCCCCCCCCCC)OC(=O)CCCCCCC/C=C\CCCCCCCC [TG 18:0_18:1_22:1] (ion (formula + adduct): [C61H114O6+NH4] 1+) |  |  | 339.3 Å²
24 | CCCCC/C=C\C/C=C\C/C=C\CCCCCCCCC(=O)OC[C@@H](COC(=O)CCCCCCCCCCCCCCCCC)OC(=O)CCCCCCC/C=C\CCCCCCCC [TG 18:0_18:1_22:3] (ion (formula + adduct): [C61H110O6+NH4] 1+) |  |  | 336.5 Å²
25 | CCCCC/C=C\C/C=C\CCCCCCCCCC(=O)OC[C@@H](COC(=O)CCCCCCCCCCCCCCCCC)OC(=O)CCCCCCC/C=C\C/C=C\CCCCC [TG 18:0_18:2_20:2] (ion (formula + adduct): [C59H106O6+NH4] 1+) |  | 330.3 Å² | 
26 | CC/C=C\C/C=C\C/C=C\C/C=C\C/C=C\CCCC(=O)OC[C@@H](COC(=O)CCCCCCCCCCCCCCCCC)OC(=O)CCCCCCC/C=C\C/C=C\C/C=C\CC [TG 18:0_18:3_20:5] (ion (formula + adduct): [C59H98O6+NH4] 1+) | 325.1 Å² |  | 
27 | CC/C=C\C/C=C\C/C=C\C/C=C\C/C=C\CCCCCC(=O)OC[C@@H](COC(=O)CCCCCCCCCCCCCCCCC)OC(=O)CCC/C=C\C/C=C\C/C=C\C/C=C\CCCCC [TG 18:0_20:4_22:5] (ion (formula + adduct): [C63H104O6+NH4] 1+) |  |  | 334.8 Å²
28 | CCCCCCCC/C=C\CCCCCCCCCCCC(=O)OC[C@@H](COC(=O)CCCCCCCCCCCCCCCCC)OC(=O)CCCCCCCCCCCCCCCCCCCCC [TG 18:0_22:0_22:1] (ion (formula + adduct): [C65H124O6+NH4] 1+) | 352.8 Å² |  | 
29 | CCCCC/C=C\C/C=C\CCCCCCCC(=O)OC[C@@H](COC(=O)CCCCCCC/C=C\CCCCCCCC)OC(=O)CCCCCCC/C=C\CCCCCCCC [TG 18:1_18:1_18:2] (ion (formula + adduct): [C57H102O6+NH4] 1+) | 324.25 ± 0.35 Å² |  | 324.3 Å²
30 | CCCCCCCC/C=C\CCCCCCCCCC(=O)OC[C@@H](COC(=O)CCCCCCC/C=C\CCCCCCCC)OC(=O)CCCCCCC/C=C\CCCCCCCC [TG 18:1_18:1_20:1] (ion (formula + adduct): [C59H108O6+NH4] 1+) | 332.4 Å² |  | 332.1 Å²
31 | CCCCC/C=C\C/C=C\C/C=C\CCCCCCC(=O)OC[C@@H](COC(=O)CCCCCCC/C=C\CCCCCCCC)OC(=O)CCCCCCC/C=C\CCCCCCCC [TG 18:1_18:1_20:3] (ion (formula + adduct): [C59H104O6+NH4] 1+) |  | 330.2 Å² | 
32 | CCCCCCCC/C=C\CCCCCCCC(=O)OC[C@H](COC(=O)CCCCCCCCCCCCCCCCCCCC)OC(=O)CCCCCCC/C=C\CCCCCCCC [TG 18:1_18:1_21:0] (ion (formula + adduct): [C60H112O6+NH4] 1+) | 336.2 Å² |  | 
33 | CCCCCCCC/C=C\CCCCCCCCCCCC(=O)OC[C@@H](COC(=O)CCCCCCC/C=C\CCCCCCCC)OC(=O)CCCCCCC/C=C\CCCCCCCC [TG 18:1_18:1_22:1] (ion (formula + adduct): [C61H112O6+NH4] 1+) |  |  | 337.8 Å²
